Data on one cell line can be found in the supplement of paper PMC10307832.

Holding throughout (assay): relative viability (nuclei count vs DMSO), 5 days (fraction); higher = more cells survive
Compound in assay [1]: C1CSC2=C(C(=O)N1)SC3=C2C=C(C=C3)O [kb NB 142-70] + C[C@]1(O)C[C@@H](c2nc(-c3ccc4ccc(-c5ccccc5)nc4c3)c3c(N)nccn32)C1 [Linsitinib] (partner 1 µM)
The procedure, abridged:
(§1)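 Medians of duplicate plates are given as relative viability. That measure is the nuclei count in treated wells divided by the count in vehicle wells. Counts were taken on 4× images of lung cancer cell lines in 1536-well plates, 5 days after pin-tool dosing the day after seeding with one drug alone or a fixed anchor-drug dose plus five library-drug doses (not always all listed) in √10 steps.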

Compound in assay [2]: C1CSC2=C(C(=O)N1)SC3=C2C=C(C=C3)O [kb NB 142-70] + Nc1ncn([C@H]2C[C@H](O)[C@@H](CO)O2)c(=O)n1 [Decitabine] (partner 2 µM)
The procedure, abridged: as §1

Compound in assay [3]: C1CSC2=C(C(=O)N1)SC3=C2C=C(C=C3)O [kb NB 142-70] + CC(=O)Nc1cccc(-n2c(=O)n(C3CC3)c(=O)c3c(Nc4ccc(I)cc4F)n(C)c(=O)c(C)c32)c1 [Trametinib] (partner 0.02 µM)
An outline of the steps:
as §1

Compound in assay [4]: NCC(=O)Nc1ccc(-n2nc(C(F)(F)F)cc2-c2ccc3c(ccc4ccccc43)c2)cc1 + Cc1nc(NC(=O)N2CCC[C@H]2C(N)=O)sc1-c1ccnc(C(C)(C)C(F)(F)F)c1 [Alpelisib] (partner 2 µM)
An outline of the steps:
as §1

Compound in assay [5]: NCC(=O)Nc1ccc(-n2nc(C(F)(F)F)cc2-c2ccc3c(ccc4ccccc43)c2)cc1 + N=C(N)NC(=N)NCCc1ccccc1 [Phenformin] (partner 250 µM)
The procedure, abridged:
as §1

For the cell line UMC-11, the relative viability in assay [1] (first compound 0.1 µM) is 1.04; in assay [1] (first compound 1 µM) it was 0.984; in assay [1] (first compound 3.162 µM), 0.599; in assay [2] (first compound 0.1 µM), 0.547; in assay [2] (first compound 1 µM) it was 0.639; in assay [2] (first compound 3.162 µM), 0.378. For the same cell line, the relative viability worked out at 0.668 in assay [3] (first compound 0.1 µM); 0.735 in assay [3] (first compound 1 µM); 0.464 in assay [3] (first compound 3.162 µM); 0.985 in assay [4] (first compound 0.02 µM); 0.968 in assay [4] (first compound 0.06325 µM); 1.03 in assay [4] (first compound 0.2 µM). In addition, the relative viability is 0.958 in assay [4] (first compound 0.6325 µM); 1.1 in assay [4] (first compound 2 µM); 0.292 in assay [5] (first compound 0.02 µM); 0.337 in assay [5] (first compound 0.06325 µM); 0.334 in assay [5] (first compound 0.2 µM); 0.319 in assay [5] (first compound 0.6325 µM). For the same cell line, in assay [5] (first compound 2 µM), the relative viability is 0.335.
